This series in a line: gradient 5% acetonitrile 3 min, to 50% in 2 min, to 85% in 15 min, held 3 min, 100 µL/min. Conditions: column: Zorbax Extend-C18 2.1 x 50 mm; eluents: water / acetonitrile, 0.1% formic acid. The gist of the method:
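Over 3 months, pure standards in mixtures of ~100 molecules were run by HPLC coupled to a quadrupole time-of-flight mass spectrometer in positive and negative ionization mode. The column was a Zorbax Extend-C18 (2.1 × 50 mm, 1.8 μm) at 100 μL/min, eluted with water and acetonitrile each holding 0.1% formic acid, with 40 μL dead and 900 μL dwell volumes. Retention time was determined from adduct peaks chosen by software and checked manually.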
The compound `O=C(NCc1ccc(F)cc1)N1CCN(c2nc3cccnc3n(Cc3ccccc3)c2=O)CC1` displayed an RP-LC retention time of 1020 s.

`Cn1cc(SCC(=O)Nc2ccccc2C(F)(F)F)c2ccccc21` showed an RP-LC retention time of 967 s.

With `CCCCOc1ccc(CNC(=O)CCc2ccc3nc(CC)[nH]c3c2)cc1`, the RP-LC retention time amounted to 683 s.

With `Cc1cc(N2CCN(C)CC2)n2nc(CN3CCN(c4cccc(C)c4C)CC3)nc2n1`, the RP-LC retention time is 570 s.

Regarding `COCCN1CN=C(Nc2nc(C)c3ccccc3n2)NC1`, the RP-LC retention time was found to be 589 s.

Take `Cc1ccnc(NS(=O)(=O)c2ccc(NC(=O)C3COc4ccccc4O3)cc2)n1` (configuration not stated): the RP-LC retention time came out at 711 s.

Take `COc1ccc(NC(=O)Cn2nc3n(c2=O)CCCCC3)c(OC)c1`: the RP-LC retention time was determined as 678 s.

Compound `Cn1ncc(N2CCC(C(=O)NCc3nc4ccccc4n3C)C2)cc1=O` (configuration not stated) had an RP-LC retention time of 569 s.

For the compound `Cc1cc(-c2nnc(-c3ccc(F)cc3)o2)c(C)n1CC(=O)NC1CCCC1`, the RP-LC retention time came to 908 s.

`CCCN1C(=O)Cc2c(C)nc(-c3cccc(F)c3)nc21`: the RP-LC retention time was found to be 1090 s.

As to `CCOc1ccc(C2Cn3nnc(-c4nc(-c5ccccc5Cl)no4)c3CO2)cc1` (configuration not stated), the RP-LC retention time was 1150 s.

For `Cn1c(=O)c2cc(C(=O)N3CCN(c4ccc(Cl)cc4)CC3)sc2n(C)c1=O`, the RP-LC retention time worked out at 862 s.

Regarding `CCCn1c(=O)c(N2CCC(NC(=O)Nc3ccc4c(c3)OCCO4)CC2)nc2ccccc21`, the RP-LC retention time stood at 933 s.

`COc1ccc(-c2nc3ncccn3c2NCc2ccc(F)cc2)cc1OC` yielded an RP-LC retention time of 692 s.

`O=C(Cc1c(F)cccc1Cl)Nc1nc2c(s1)CN(S(=O)(=O)c1ccccc1)CC2` came in with an RP-LC retention time of 950 s.

Compound `Cc1cc(C)cc(Nc2c(-c3ccc4c(c3)OCO4)nc3cnccn23)c1` came in with an RP-LC retention time of 984 s.

The compound `C/C=C(\C)C(=O)O[C@H]1CC[C@@]2(C)[C@@H]3CC[C@H]4[C@]5(O)C[C@H](O)[C@@]6(O)[C@@H](CN7C[C@@H](C)CC[C@H]7[C@@]6(C)O)[C@]5(O)C[C@@]42O[C@]13O` gave an RP-LC retention time of 692 s.

Compound `Cc1cc(NC(=O)c2cn(C)nc2S(=O)(=O)N2CCSCC2)ccc1F` yielded an RP-LC retention time of 960 s.

As for `O=C1CC(c2nc(-c3ccc4c(c3)OCO4)no2)CN1c1ccc2c(c1)OCO2` (configuration not stated), the RP-LC retention time is 862 s.

In the case of `O=C(NCc1cccnc1)C1CCN(S(=O)(=O)c2cc(-c3noc(C4CCC4)n3)cs2)CC1`, the RP-LC retention time was 702 s.

For the compound `O=c1n(Cc2ccc3c(c2)OCO3)nc2c(S(=O)(=O)N3CCc4ccccc4C3)cccn12`, the RP-LC retention time came out at 922 s.

Turning to `CCc1nnc(C2CN(C)CC23CCN(S(=O)(=O)c2ccc(C)c(Cl)c2)CC3)o1` (configuration not stated), the RP-LC retention time came to 675 s.

Regarding `Cc1cc(C)n(Cc2nc(-c3ccc(NC(=O)c4cccs4)cc3)oc2C)n1`, the RP-LC retention time worked out at 896 s.

For `COc1ccc(-c2noc(C3CC(=O)N(c4ccccc4)C3)n2)cc1OC` (configuration not stated), the RP-LC retention time is 964 s.

Compound `Cc1nn(CC(=O)NCCCN2CCOCC2)c(=O)c2nc(-c3ccccc3)sc12` displayed an RP-LC retention time of 615 s.

The compound `Cc1ccc(OCC(=O)Nc2nnc(SCc3nnc(-c4ccccc4C)o3)s2)c(C)c1` showed an RP-LC retention time of 1100 s.

`Cc1c(F)cccc1NC(=O)N1C[C@@H](F)C[C@H]1C(=O)N1CCOCC1` had an RP-LC retention time of 653 s.

For `Cc1c(Cl)cccc1Nc1c(-c2ccccc2)nc2cnccn12`, the RP-LC retention time worked out at 997 s.

The compound `CCOc1cc(=O)n2c(c1C(=O)Nc1ccc(Br)c(C)c1)CCCC2` registered an RP-LC retention time of 848 s.

`CCC(C)(C)NS(=O)(=O)c1cc(-c2nc(C(C)(C)C)cs2)cs1` returned an RP-LC retention time of 1300 s.

`O=S(=O)(Cc1cccc(Cl)c1)N1CCc2nc[nH]c2C1` gave an RP-LC retention time of 616 s.

Regarding `O=C(CSCc1cnn(-c2ccccc2)c1-n1cccc1)N1CCN(c2ccccn2)CC1`, the RP-LC retention time was found to be 690 s.

`CS(=O)(=O)N1CCC(C(=O)NCc2ccsc2)CC1` showed an RP-LC retention time of 616 s.

The compound `Cc1nc2cc(N3CC(C(=O)Nc4ccc(Br)c(C)c4)CC3=O)ccc2o1` (configuration not stated) returned an RP-LC retention time of 846 s.

Regarding `Cc1ccc(CNC(=O)C2CCCN(S(=O)(=O)c3cc(-c4noc(C)n4)cs3)C2)cc1` (configuration not stated), the RP-LC retention time was 974 s.

For `COc1ccc(C)cc1NC(=O)N1CCCC(C)(C(=O)NCc2ccc(C)cc2)C1` (configuration not stated), the RP-LC retention time stood at 968 s.

`CCCn1cc(C(=O)NCc2ccc(N3CCOCC3)cc2)c2cccnc21`: the RP-LC retention time was 734 s.

As to `Cc1ccc(-c2nnc3ccc(N4CCC(C(=O)NC5CC5)CC4)nn23)cc1`, the RP-LC retention time amounted to 736 s.

On to `O=C(c1ccc(OCC2CCCN(C(=O)C3CCCC3)C2)cc1)N1CCCC1` (configuration not stated), for which the RP-LC retention time was 846 s.

`COc1ccc(-c2ncccc2CNS(=O)(=O)c2cccc(OC)c2)cc1` registered an RP-LC retention time of 670 s.

In the case of `Cc1ccccc1Oc1nccn2c(=O)n(CC(=O)Nc3c(C)cccc3C)nc12`, the RP-LC retention time came to 838 s.

Turning to `CNC(=O)c1cn(-c2ccc(S(=O)(=O)N3CCCC3)cn2)cn1`, the RP-LC retention time worked out at 622 s.

Turning to `NC(=O)C1CCN(C(=O)CCCn2c(=O)c3cccn3c3ccc(Br)cc32)CC1`, the RP-LC retention time turned out to be 685 s.

Turning to `COc1ccc(NC(=O)c2cn(-c3cc(N4CCC(C)CC4)ncn3)cn2)c(OC)c1`, the RP-LC retention time worked out at 1150 s.

As to `NC(=O)C1CCN(C(=O)CN2CCN(c3ccccc3F)CC2)CC1`, the RP-LC retention time is 580 s.

Regarding `CC1Cc2ccccc2N1C(=O)c1coc(NC(=O)c2ccco2)n1` (configuration not stated), the RP-LC retention time is 724 s.

Turning to `Cc1ccc(C)c(-c2cn3ccn(-c4cccc(F)c4)c(=O)c3n2)c1`, the RP-LC retention time was found to be 892 s.

Compound `CN1C(=O)CC[C@]2(C(=O)NCc3cc(F)ccc3F)CCCC[C@@H]12` displayed an RP-LC retention time of 575 s.

Turning to `COc1ccc(NC(=O)N(C)CCc2noc(COc3ccccc3F)n2)c(OC)c1`, the RP-LC retention time worked out at 877 s.

Compound `O=C1NCCN2CC3(CCN(S(=O)(=O)c4cccc5cccnc45)CC3)CC12` (configuration not stated) came in with an RP-LC retention time of 581 s.

Turning to `CN(CC1(C)CCOCC1)C(=O)c1ccc2ccccc2n1`, the RP-LC retention time stood at 727 s.

Regarding `CCOc1ccc(C(=O)N2C[C@@H]3C[C@H](NC(=O)c4cccs4)[C@H]2C3)cc1`, the RP-LC retention time worked out at 783 s.

In turn, `CCc1ccc(S(=O)(=O)N2CCC(N3CCN(Cc4ccccc4)C(=O)C3=O)CC2)cc1` returned an RP-LC retention time of 859 s.

`CN(Cc1ccccc1)C(=O)c1ccc(NC(=O)[C@H]2[C@@H]3C[C@@H]4[C@H]2C(=O)O[C@@H]4C3)cc1` returned an RP-LC retention time of 775 s.

`Cc1ccc(C2Cn3nnc(C(=O)N4CCN(C(=O)c5ccco5)CC4)c3CO2)cc1` (configuration not stated) showed an RP-LC retention time of 844 s.

Turning to `CCS(=O)(=O)c1ccc2c(c1)N(Cc1nc(-c3ccccc3OC)no1)C(=O)CO2`, the RP-LC retention time stood at 810 s.

The compound `CC1(C(=O)NCc2ccccc2)CN(S(=O)(=O)c2ccccc2)CC(=O)N1c1ccc(F)cc1` (configuration not stated) yielded an RP-LC retention time of 914 s.
